# Source: publication PMC10648349, “Aromatic Diboronic Acids as Effective KPC/AmpC Inhibitors” (Molecules, 2023)
# Key:
# [1] = tested on: K. pneumoniae ATCC BAA 1705 KPC-2-positive; assay: combination disc test CDT-KPC; type: cell-based; conditions: Klebsiella pneumoniae, BAA1705, read-out: Diameter of inhibition zone, MEM-10 disc with agent
# S. cerevisiae ATCC 9763 = assay: antifungal activity (disc-diffusion, MIC, MFC); type: cell-based; conditions: Saccharomyces cerevisiae, ATCC9763; for MIC: fluconazole by Etest
# Summary of the method: (§1)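 Reference drugs were nitrofurantoin for Gram-negative rods, linezolid for Gram-positive bacteria and fluconazole for yeasts. Test agents were dissolved in DMSO and assessed by disc diffusion (0.4 mg/disc), MIC, and MBC or MFC per EUCAST/CLSI.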
# C. tropicalis ATCC 750 = assay: antifungal activity (disc-diffusion, MIC, MFC); type: cell-based; conditions: Candida tropicalis, ATCC750; for MIC: fluconazole by Etest
# Summary of the method: as §1
# C. tropicalis IBA 171 = assay: antifungal activity (disc-diffusion, MIC, MFC); type: cell-based; conditions: Candida tropicalis, IBA171; for MIC: fluconazole by Etest
# Summary of the method: as §1
# C. albicans ATCC 90028 = assay: antifungal activity (disc-diffusion, MIC, MFC); type: cell-based; conditions: Candida albicans, ATCC90028; for MIC: fluconazole by Etest
# Summary of the method: as §1
# [2] = tested on: K. pneumoniae 81 KPC-3-positive; assay: checkerboard microdilution, antibiotic plus tested agent; type: cell-based, Klebsiella pneumoniae
# Summary of the method: (§2)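 Chequerboard layout: tested agent in three two-fold steps (4–16 mg/L) crossed with seven β-lactam dilutions (1–64 mg/L), meropenem for KPC strains and ceftazidime for the cAmpC strain. FICI from first non-growth wells, off-scale MICs raised one doubling; ≤0.5 counts as synergy, >4 antagonism.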
# [3] = tested on: K. pneumoniae 83 KPC-3-positive, CTX-M-3-positive; assay: as above; type: cell-based, Klebsiella pneumoniae
# Summary of the method: as §2
# [4] = tested on: K. pneumoniae ATCC BAA-1705 KPC-2-positive; assay: as above; type: cell-based, Klebsiella pneumoniae
# Summary of the method: as §2
# E. coli DH5α = assay: whole cell assay, meropenem MIC with tested agent; type: cell-based, Escherichia coli
# Method: To examine the ability of tested agents to inhibit various carbapenemases and AmpC-enzymes, their synergy with antibiotics against β-lactamase-producing strains was assessed by checkerboard microdilution assay, with slight modification. Checkerboards were prepared in microtiter plates, with seven two-fold dilutions of β-lactams (1–64 mg/L) in the rows and three two-fold dilutions of tested agents and PBA (4–16 mg/L) in the columns. Tested agents’ concentrations were limited to the concentrations at which the newest commercially available BLIs (vaborbactam, relebactam, and avibactam) are used in susceptibility testing. Plates were inoculated and incubated as in the MIC microdilution assay. Parallel, MICs of tested agents and PBA alone were determined by the microdilution assay. Following the incubation, antibiotic MICs in the presence of each agent’s concentration were determined. Moreover, for the first well without growth found in each checkerboard row and column along the growth/non-growth interface, the fractional inhibitory concentration index (FICI) was calculated using the formula below:FICI = [(MIC of antibiotic in combination)/(MIC of antibiotic alone)] + [(MIC of the tested agent in combination)/(MIC of tested agent alone)].
# [5] = tested on: Gram-negative rods (except P. aeruginosa); assay: direct antimicrobial activity, MIC; type: cell-based
# Method: Direct antimicrobial activity against Gram-negative and Gram-positive bacterial strains, as well as against yeast, was examined as previously described by the disc-diffusion test, the MIC determination assay, the MBC (for bacteria), and the MFC (for yeasts) determination tests. All the above-mentioned tests were performed according to EUCAST [71, 72] and CLSI [73, 74, 75, 76, 77] recommendations. The following reference agents were used: nitrofurantoin (for Gram-negative rods), linezolid (for Gram-positive bacteria), and fluconazole (in the case of fungi). The new aromatic diboronic acids were dissolved in DMSO (Sigma, St. Louis, MO, USA). In the disc-diffusion test, the concentration of new agents was 0.4 mg per disc.
# [6] = tested on: E. coli 76 KPC-2-positive; assay: checkerboard microdilution, antibiotic plus tested agent; type: cell-based, Escherichia coli
# Summary of the method: as §2
# [7] = tested on: E. coli 77 CMY-2-positive; assay: as above; type: cell-based, Escherichia coli
# Summary of the method: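 Read-out is the antibiotic MIC with agent present, plus FICI = combined/alone MIC ratios summed for both partners. Meropenem pairs served for carbapenemase strains and ceftazidime pairs for the AmpC strain. Agent or PBA was tested at 4–16 mg/L.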
# [8] = tested on: S. epidermidis ATCC 12228; assay: direct antimicrobial activity (disc-diffusion, MIC, MBC); type: cell-based; conditions: Staphylococcus epidermidis, ATCC12228
# Summary of the method: as §1
# E. faecium ATCC 6057 = assay: as above; type: cell-based; conditions: Enterococcus faecium, ATCC6057
# Summary of the method: as §1
# [9] = tested on: K. pneumoniae ATCC BAA 1705 KPC(+); assay: screening test of direct antimicrobial activity (STDA), disc-diffusion; type: cell-based; conditions: Klebsiella pneumoniae, BAA1705, - no zone, read-out: Diameter of inhibition zone around disc with tested agent
# Method: (§3) Prior to combination disc tests, screening tests of direct antimicrobial activity (STDA) of the tested agent against β-lactamase-producing strains were performed by the disc-diffusion method. Discs with 0.3 mg, 0.1 mg, and 0.03 mg of each agent were examined. The highest amount of an agent that caused no effect on bacterial growth was used in further experiments.
# [10] = tested on: K. pneumoniae ATCC 700603 ESBL(+); assay: as above; type: cell-based; conditions: Klebsiella pneumoniae, ATCC700603, - no zone, read-out: Diameter of inhibition zone around disc with tested agent
# Method: as §3
# E. coli 77 CMY-2(+) = assay: as above; type: cell-based; conditions: Escherichia coli, - no zone, read-out: Diameter of inhibition zone around disc with tested agent
# Method: as §3
# [11] = tested on: P. aeruginosa MUW 700 AmpC(+); assay: as above; type: cell-based; conditions: Pseudomonas aeruginosa, - no zone, read-out: Diameter of inhibition zone around disc with tested agent
# Method: as §3
# [12] = 0.4 mg per disc, 9 mm disc (linezolid 0.03 mg, 6 mm disc), - no zone, read-out: Diameter of inhibition zone
# [13] = 0.4 mg per disc, 9 mm disc (fluconazole 0.025 mg, 6 mm disc), - no zone, read-out: Diameter of inhibition zone
structure (smiles),measurement,setting,value
"OB(O)c1ccccc1B(O)O [3a, phenylene-1,2-diboronic acid]",zone of inhibition at 300 µg/disc,[1]; agent 0.3 mg per disc,17 mm
same,MIC,S. cerevisiae ATCC 9763,25 µg/mL
same,MIC,C. tropicalis ATCC 750,> 400 µg/mL
same,MIC,C. tropicalis IBA 171,> 400 µg/mL
same,MIC,C. albicans ATCC 90028,> 400 µg/mL
same,Average FICI with ERT,[2],0.14
same,Average FICI with IMI,[2],0.13
same,Average FICI with MEM,[2],0.10
same,The lowest FICI with ERT,[2],0.07
same,The lowest FICI with IMI,[2],0.10
same,The lowest FICI with MEM,[2],0.07
same,Average FICI with ERT,[3],0.17
same,Average FICI with IMI,[3],0.17
same,Average FICI with MEM,[3],0.13
same,The lowest FICI with ERT,[3],0.10
same,The lowest FICI with IMI,[3],0.10
same,The lowest FICI with MEM,[3],0.06
same,Average FICI with ERT,[4],0.32
same,Average FICI with IMI,[4],0.19
same,Average FICI with MEM,[4],0.32
same,The lowest FICI with ERT,[4],0.17
same,The lowest FICI with IMI,[4],0.15
same,The lowest FICI with MEM,[4],0.17
same,MIC,"E. coli DH5α; Escherichia coli, read-out: MIC of agent alone",400 µg/mL
same,MIC of meropenem in combination with agent,E. coli DH5α; agent 16 mg/L,0.016 µg/mL
same,MIC,[5],50 to 400 µg/mL
same,Average FICI with ERT,[6],0.23
same,Average FICI with IMI,[6],0.13
same,Average FICI with MEM,[6],0.17
same,The lowest FICI with ERT,[6],0.17
same,The lowest FICI with IMI,[6],0.10
same,The lowest FICI with MEM,[6],0.10
same,Average FICI with ceftazidime,[7],0.44
same,The lowest FICI with ceftazidime,[7],0.29
same,MIC,[8],200 µg/mL
same,zone of inhibition at 0.4 mg/disc,[8]; [12],20 mm
same,MIC,E. faecium ATCC 6057,50 µg/mL
same,zone of inhibition at 0.4 mg/disc,E. faecium ATCC 6057; [12],16 mm
"OB(O)c1cc(F)ccc1F [7a, 2,5-difluorophenylboronic acid]",zone of inhibition at 30 µg/disc,[1]; agent 0.03 mg per disc,13 mm
same,zone of inhibition at 0.4 mg/disc,S. cerevisiae ATCC 9763; [13],18 mm
same,MIC,S. cerevisiae ATCC 9763,50 µg/mL
same,zone of inhibition at 0.4 mg/disc,C. tropicalis ATCC 750; [13],21 mm
same,MIC,C. tropicalis ATCC 750,50 µg/mL
same,zone of inhibition at 0.4 mg/disc,C. tropicalis IBA 171; [13],25 mm
same,MIC,C. tropicalis IBA 171,25 µg/mL
same,zone of inhibition at 0.4 mg/disc,C. albicans ATCC 90028; [13],29 mm
same,MIC,C. albicans ATCC 90028,25 µg/mL
same,Average FICI with ERT,[2],0.46
same,Average FICI with IMI,[2],0.21
same,Average FICI with MEM,[2],0.23
same,The lowest FICI with ERT,[2],0.33
same,The lowest FICI with IMI,[2],0.17
same,The lowest FICI with MEM,[2],0.14
same,Average FICI with ERT,[3],0.51
same,Average FICI with IMI,[3],0.30
same,Average FICI with MEM,[3],0.47
same,The lowest FICI with ERT,[3],0.41
same,The lowest FICI with IMI,[3],0.29
same,The lowest FICI with MEM,[3],0.29
same,Average FICI with ERT,[4],0.76
same,Average FICI with IMI,[4],0.43
same,Average FICI with MEM,[4],0.51
same,The lowest FICI with ERT,[4],0.58
same,The lowest FICI with IMI,[4],0.33
same,The lowest FICI with MEM,[4],0.41
same,zone of inhibition at 100 µg/disc,[9]; 0.1 mg per disc,12 mm
same,zone of inhibition at 300 µg/disc,[9]; 0.3 mg per disc,17 mm
same,zone of inhibition at 100 µg/disc,[10]; 0.1 mg per disc,18 mm
same,zone of inhibition at 300 µg/disc,[10]; 0.3 mg per disc,18 mm
same,zone of inhibition at 100 µg/disc,E. coli 77 CMY-2(+); 0.1 mg per disc,13 mm
same,zone of inhibition at 300 µg/disc,E. coli 77 CMY-2(+); 0.3 mg per disc,18 mm
same,zone of inhibition at 100 µg/disc,[11]; 0.1 mg per disc,11 mm
same,zone of inhibition at 300 µg/disc,[11]; 0.3 mg per disc,12 mm
same,MIC,[5],50 to 400 µg/mL
same,Average FICI with ERT,[6],0.51
same,Average FICI with IMI,[6],0.30
same,Average FICI with MEM,[6],0.51
same,The lowest FICI with ERT,[6],0.41
same,The lowest FICI with IMI,[6],0.29
same,The lowest FICI with MEM,[6],0.41
same,Average FICI with ceftazidime,[7],0.17
same,The lowest FICI with ceftazidime,[7],0.14
same,MIC,[8],100 µg/mL
same,MIC,E. faecium ATCC 6057,400 µg/mL
